pIC50: −log10 of the molar value. Converted amounts (≈) assume the structure as drawn. Like-named read-outs stand apart in the source and are kept apart here.

The nature of data set [1]: Kinetic solubility in PBS. Type of data set: physicochemical. To be noted: phosphate-buffered saline, pH 7.4, aqueous buffer, kinetic from dmso stock. Put shortly:
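DMSO stocks diluted into PBS pH 7.4 to 100 μM and shaken 2 h at room temperature in duplicate, then filtered by centrifugation. Filtrates diluted 1:99 in 50% acetonitrile. Quantified by Echo-MS against calibration standards spanning 0.05–4 μM.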

A short description of data set [2]: Plasma stability assay, human plasma.
Data set [3] is described as follows: Plasma stability assay, mouse plasma.
Data set [4] is described as follows: Plasma protein binding, equilibrium dialysis, human plasma. The conditions noted are these: undiluted plasma. Type of data set: in vitro ADME.
Data set [5] can be described thus: In vivo pharmacokinetic study, intravenous. The arrangement: species or system male CD-1 mice. To be noted: for half-life: male, footnote: t1/2 stability in plasma, text: half-life in mouse PK. Put shortly: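 Single intravenous dose in male CD-1 mice (n=3, 9 weeks, 29.2–33.7 g). Plasma levels measured by LC-MS/MS at 5, 15, 30, 60, 120, 240 and 480 min.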
Data set [6] concerns the target T1, recombinant human CD73 (hCD73) (Homo sapiens, UniProt P21589).
T1 sequence (P21589 27-574): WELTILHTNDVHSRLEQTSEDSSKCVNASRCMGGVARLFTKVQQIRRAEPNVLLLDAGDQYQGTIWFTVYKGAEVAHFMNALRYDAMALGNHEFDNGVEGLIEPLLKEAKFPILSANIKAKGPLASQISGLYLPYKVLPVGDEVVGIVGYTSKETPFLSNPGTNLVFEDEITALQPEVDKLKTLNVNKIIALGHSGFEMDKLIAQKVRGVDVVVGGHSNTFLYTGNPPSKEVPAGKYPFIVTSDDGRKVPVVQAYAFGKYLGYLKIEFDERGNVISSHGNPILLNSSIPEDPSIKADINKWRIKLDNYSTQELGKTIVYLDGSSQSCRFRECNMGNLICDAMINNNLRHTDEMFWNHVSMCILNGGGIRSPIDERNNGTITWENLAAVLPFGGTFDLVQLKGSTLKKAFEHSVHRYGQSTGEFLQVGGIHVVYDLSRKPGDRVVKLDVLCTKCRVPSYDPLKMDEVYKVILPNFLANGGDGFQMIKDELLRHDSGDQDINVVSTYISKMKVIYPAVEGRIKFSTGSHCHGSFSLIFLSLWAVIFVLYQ
Briefly: CD73 activity assay on recombinant human CD73. To be noted: ΔGexp = RT ln Ki. The format is biochemical.

Data set [7] is described as follows: Plasma protein binding, mouse plasma. Type of data set: in vitro ADME.
The test system of a further data set is HeLa S3. Nature of the data set: In vitro cytotoxic activity. The format is cell-based. The conditions noted are these: Homo sapiens. The protocol: (§1) All the compounds were also tested for their in vitro cytotoxic activity on a small panel of four cancer cell lines (CCRF-CEM, HepG2, HeLa S3, HL-60) and nonmalignant human dermal fibroblasts (NHDF).
A further data set concerns HepG2. Briefly: In vitro cytotoxic activity. The conditions noted are these: Homo sapiens. Type of data set: cell-based. As to the method:
as §1

A further data set deals with HL-60. Briefly: In vitro cytotoxic activity. To be noted: Homo sapiens. Type of data set: cell-based. The protocol:
as §1

In a further data set the test system is CCRF-CEM. Nature of the data set: In vitro cytotoxic activity. Type of data set: cell-based. The conditions noted are these: Homo sapiens. The protocol: as §1
The subject of data set [8] is nonmalignant human dermal fibroblasts (NHDF). Nature of the data set: In vitro cytotoxic activity. The format is cell-based. As to the method:
as §1

The nature of data set [9]: Microsomal stability assay, human liver microsomes. To be noted: for Mics (hu) comp remaining 60 min: 10 μM; for microsomal CLint at 10 µM: pooled liver microsomes, pH 7.4, read-out: Mics (hu) CLint. Type of data set: in vitro ADME.
Data set [10] is described as follows: in vitro. The conditions noted are these: human, plasma.
The subject of data set [11] is MDA-MB-231 breast cancer cell line. Nature of the data set: CellTox Green cytotoxicity assay. The format is cell-based, human. To be noted: 24 h. The protocol: MDA-MB-231 cells were harvested and counted using an automated cell counter. A total of 2,500 cells per well were seeded in 20 μL of phenol red-free complete RPMI medium into black 384-well plates. Five μL of CD73 inhibitors (final concentration: […]) or 5 μL PBS (negative control) were added to each well, except for wells designed as maximal signal (dead cell) controls. Plates were incubated for 24 h at 37 °C in a humidified CO2 incubator. To generate the maximum signal control, 5 μL of lysis buffer (CellTox Green Cytotoxicity Assay, Promega) was added to the dead cell controls, followed by a 30 min incubation at room temperature. Subsequently, 25 μL/well of CellTox Green Dye (diluted 1:500 in the assay buffer; Promega) was added. Plates were incubated in the dark on an orbital shaker at 500–700 rpm for 15 min. Fluorescence was measured using an Infinite M1000 plate reader (Tecan) with excitation at 485–500 nm and emission at 520–530 nm. Data were analyzed in GraphPad Prism 10.
Figure S2: Effect of CD73 inhibition on the viability of CD73-expressing breast cancer cell line. MDA-MB-231 cells were incubated with 10 µM CD73 inhibitors for 24 hours. Viability was assessed using the CellTox™ Green Cytotoxicity Assay.
± s.d. of technical triplicates (s.d., standard deviation).
(1 picture or pasted object on this page, not shown here)

Data set [12] is described as follows: in vitro. The conditions noted are these: mouse, plasma.
Data set [13] in a line: Microsomal stability assay, mouse liver microsomes. To be noted: for Mics (m) comp remaining 60 min: 10 μM; for microsomal CLint at 10 µM: pooled liver microsomes, pH 7.4, read-out: Mics (m) CLint. The format is in vitro ADME.
Another data set deals with CD8+ T cells. Nature of the data set: CD8+ T cell activation assay (CD25, IFN-γ, granzyme B). The format is cell-based, human. The conditions noted are these: 500 nM, separate CD8+ T-cell activation assays. The protocol:
6 CD73 inhibition partially reverses the immunosuppressive effect of adenosine generated from AMP in CD8 ^ + T cells. CD8^+ T cells were activated using CD3/CD28 activation beads in the presence of 2.5 μM EHNA, with or without 1 mM AMP and CD73 inhibitors (500 nM or 50 nM). A. CD25 expression. The percentage of CD8^+ T cells expressing the activation marker CD25 was measured by flow cytometry 60 h after activation. Data represent technical triplicates. B. Cytokine secretion. Granzyme B and IFN-γ levels in the culture supernatant were quantified by ELISA 60 h after activation. The data represent technical duplicates from two independently treated wells.
Peripheral blood was obtained from healthy donors at the Military University Hospital Prague, following informed consent. CD8+ T cells were enriched using the RosetteSep Human CD8+ T Cell Enrichment Cocktail ([…] Technologies) according to the manufacturer’s instructions and subsequently isolated by density gradient centrifugation using SepMate tubes ([…] Technologies). Residual red blood cells were lysed using a red blood cell lysis buffer (155 mM NH4Cl, 12 mM NaHCO3, 0.1 mM EDTA, pH = 7.1–7.4). The isolated CD8+ T cells were resuspended in complete RPMI and counted using an automated cell counter.
CD8+ T cells were seeded at 5 × 10^4 cells/well in 50 μL of complete RPMI in a flat-bottom 96-well plate. […] This was followed by the addition of 10 μL of a CD73 inhibitor at either 5 μM or 500 nM (experimental wells) or 10 μL of complete RPMI (control wells). Subsequently, 20 μL of 5 mM AMP was added to all wells except those serving as controls for maximal T cell activation. […]
Following incubation, supernatants were collected for quantification of IFN-γ and granzyme B using ELISA. […] Finally, stained cells were washed and analyzed using a BD LSRFortessa flow cytometer. Data were processed and analyzed using FlowJo software (version 10.8.1) and GraphPad Prism 10.
Secretion of IFN-γ and granzyme B was quantified using Human IFN-γ DuoSet ELISA and Human Granzyme B DuoSet ELISA (R&D Systems) according to the manufacturer’s instructions. […]

For data set [14] the following is noted: AB680 literature row of Table 4; cited from earlier work.
Setting [15] is: human plasma protein binding, read-out: PPB (hu) (converted).
Where [16] appears, read: mouse, plasma, 1 mg/kg, male CD-1 mice, intravenous, single dose, read-out: Cl (obs), observed clearance.
[17] abbreviates: mouse, plasma, Tables 2 and 4, mouse plasma, read-out: fup, fraction unbound in mouse plasma.
[18] abbreviates: mouse, plasma, mouse plasma protein binding, read-out: PPB (m) (converted).

In data set [1], `O=P(O)(O)CP(=O)(O)OC[C@H]1O[C@@H](n2ccc3c(-c4cc5ccccc5c5ccccc45)ncnc32)[C@H](O)[C@@H]1O` [4A.11] displayed a solubility at 2 h of 68 µM (≈ 39.8 µg/mL). The half-life at 10 µM in data set [2] and in data set [3] was > 2 h in each case. Also, the fraction unbound at 4 h, 100 µM in data set [4] (Tables 1 and 3, human plasma as printed in footnote, read-out: fup, fraction unbound in human plasma) is 0.31; in [4] (setting [15]) it was 0.013; in [7] (mouse plasma protein binding, read-out: PPB (m) (converted)), 0.222. Further, the clearance entry in data set [5] (in vivo PK in mice, unit not given) is “moderate clearance”; in [5] (setting [16]), 2 mL/min/kg. The half-life in data set [5] (CD-1, 1 mg/kg, intravenous) stood at 1.65 h. Besides, the “dG_exp, experimental binding free energy” value in data set [6] is given as “–13.1 kcal/mol”. The pIC50 (with HeLa S3; in the data set with HepG2; with HL-60; with CCRF-CEM; in data set [8]) was < 5.00 in each case.

For `O=P(O)(O)CP(=O)(O)OC[C@H]1O[C@@H](n2ccc3c(-c4cccc5ccccc45)nc(Cl)nc32)[C@H](O)[C@@H]1O` [7B.6], the “Mics (hu) comp remaining 60 min” value in [9] is reported as 96%. Besides, the microsomal CLint at 10 µM came out at 1 µL/min/mg in [9] and 2 µL/min/mg in [13]. The half-life at 10 µM in the data set “in vitro [10]” and in the data set “in vitro [12]” was > 2 h throughout. The compound also yielded a solubility at 2 h in [1] of 92 µM (≈ 52.4 µg/mL). Also, the fraction unbound at 4 h, 100 µM in data set [4] (setting [15]) was 0.034; in [7] (setting [17]), 0.27; in [7] (setting [18]), 0.274. This compound showed a half-life in data set [5] (CD-1, mouse, plasma, iv, 1 mg/kg, intravenous) of 2.1 h. Further, the clearance in data set [5] (setting [16]) came out at 0.73 mL/min/kg. In addition, in [6], the “dG_exp, experimental binding free energy” value is on record as “–15.4 kcal/mol”. Moreover, the “in vitro cytotoxicity against MDA-MB-231” value in data set [11] was “nontoxic”. Also, the “Mics (m) comp remaining 60 min” value in data set [13] is given as 94%. Also, the pIC50 in the data set on HeLa S3 was < 5.00; with HepG2, < 5.00; in the data set with HL-60, 5.54; in the data set on CCRF-CEM, < 5.00; in data set [8] it was < 5.00.

Take `C[C@H](Nc1cc(Cl)nc2c1cnn2[C@@H]1O[C@H](COP(=O)(O)CP(=O)(O)O)[C@@H](O)[C@H]1O)c1ccccc1F` [AB680, quemliclustat, reference compound]: the “median increase in CD25 expression” value with CD8+ T cells came out at 41%. In data set [9], the “Mics (hu) comp remaining 60 min” value was found to be 118%. For the same compound, the microsomal CLint at 10 µM in [9] and in data set [13] was < 2 µL/min/mg throughout. Also, the half-life at 10 µM in the data set “in vitro [10]” and in the data set “in vitro [12]” was > 2 h throughout. The compound also displayed a solubility at 2 h in [1] of 76 µM (≈ 44.1 µg/mL). Besides, the values for the fraction unbound at 4 h, 100 µM in [4] (setting [15]), in [7] (setting [17]) and in [7] (setting [18]) were ≤ 0.01, 0.1 and 0.098, respectively. Besides, the “fup, fraction unbound in mouse plasma” value in [14] is recorded as 0.89. Besides, the “Mics (m) comp remaining 60 min” value in data set [13] is on record as 117%.

Values taken from article PMC12797170, “Potent Competitive Inhibitors of Ecto-5′-nucleotidase (CD73) based on 6‑(Het)aryl-7-deazapurine Ribonucleoside 5′‑O‑Bisphosphonates” (ACS Pharmacology & Translational Science, 2025).
